Source: patent publication US5514662A, “Use of amphotericin B derivatives as protease inhibitors” (priority 1991, dated 1996)
Read-outs that look alike come from different tables or passages of the source.

Experiments:
[1] = system: HIV-1; settings: cited from earlier work
[2] = system: HIV; settings: cited from earlier work
[3] = Cytotoxicity in HeLa-Ohio cells; format: cell-based, human; settings: human, hela-ohio cells; read-out: concentration above which cytotoxic
[4] = system: DNA and RNA viruses containing a lipid envelope; settings: in vitro; cited from earlier work
[5] = patients; cited from earlier work
[6] = molecular target: T1, trypsin (Bos taurus, UniProt P00760); assay: Inhibition of trypsin; format: biochemical
T1 sequence (P00760 24-246): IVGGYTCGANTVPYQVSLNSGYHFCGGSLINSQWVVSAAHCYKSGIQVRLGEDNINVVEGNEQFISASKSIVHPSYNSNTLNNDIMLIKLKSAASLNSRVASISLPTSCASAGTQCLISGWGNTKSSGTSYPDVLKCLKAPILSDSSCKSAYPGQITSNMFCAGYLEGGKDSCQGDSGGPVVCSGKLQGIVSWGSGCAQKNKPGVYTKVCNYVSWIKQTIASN

[7] = system: HRV14; assay: Cytopathogenic effect of HRV14 in HeLa-Ohio cells; format: cell-based; settings: 0.03 to 100 μM, added 1 hour after infection
Method: HeLa-Ohio cells cultured until they have become confluent, are infected with a suspension of HRV14 virus. The cytopathogenic effect of the virus is evaluated by staining the cells with a 0.5% solution of crystal violet and 20% of methanol; after rinsing the plates with water, the optical density is read at 550 nm.
For the rest of the experiment, the cells are infected with a viral suspension with a titre such that 50% of the cells are killed after 3 days on control cells not receiving any treatment. 1 hour after the infection, the test product (AmB or DABF-AmB) is added at concentrations ranging from 0.03 to 100 μM. The percentage inhibition of the cytopathogenic effect is determined as follows:
OD (treated infected cells)-OD (infected cells)!
OD (healthy cells)-OD (infected cells)!
The effect of the addition of DABF-AmB was tested at various times: preincubation of the cells with DABF-AmB before the viral infection; addition of DABF-AmB at the time of the infection; addition of DABF-AmB after the infection, during the period of viral proliferation.

[8] = system: HIV-1; settings: T cells infected in vitro; cited from earlier work
[9] = read-out: % inhibition of trypsin relative to a control without inhibitor

For “N N'-(2,4'-methylmorpholino)-N"-ethylguanyl!amphotericin B [MCG]”, the cell-protecting properties [1] is given as “does not possess, according to this study, cell-protecting properties” and the direct antiviral action ([1]; preincubation with the virus) is given as “has a direct antiviral action”.
For `Cc1cn([C@H]2C[C@H](N=[N+]=[N-])[C@@H](CO)O2)c(=O)[nH]c1=O` [AZT, 3'-azido-2',3'-dideoxythymidine], the “side effects of treatment” value ([2]; human, in vivo) is listed as “severe side effects of treatment with AZT, in particular a degeneration of bone marrow” and the “clinical condition of AIDS patients” value [2] is listed as “improvement of the clinical condition of patients”.
For `C[C@@H]1[C@H](O)[C@@H](C)/C=C/C=C/C=C/C=C/C=C/C=C/C=C/[C@H](O[C@@H]2O[C@H](C)[C@@H](O)[C@H](N)[C@@H]2O)C[C@@H]2O[C@](O)(C[C@@H](O)C[C@@H](O)[C@H](O)CC[C@@H](O)C[C@@H](O)CC(=O)O[C@H]1C)C[C@H](O)[C@H]2C(=O)O` [AmB, amphotericin B], the MCC [3] is given as over 5 µM, the “activity against enveloped DNA and RNA viruses and herpes virus strains” value [4] is given as “active in vitro” and the “side effects of prolonged treatment” value [5] is given as “frequent side effects such as fever or serious nephrotoxicity”. The “inhibition of trypsin (in words)” value [6] was “a certain inhibitory activity on trypsin”, the inhibition at 10 µM ([6]; 10^-5 M) was 30% and the inhibition at 1 µM ([6]; 10^-6 M, read-out: % of inhibition of trypsin) was 10%. For the same compound, the inhibition at 0.1 µM ([6]; 10^-7 M) was 5%, the inhibition at 1 µM [6, 9] was about 10% and the “antiviral activity on HRV14 (in words)” value [7] was “no detectable antiviral activity”.
With `CNC[C@H](O)[C@@H](O)[C@H](O)[C@H](O)CO` [N-methylglucamine, reference compound] the “antiviral activity on HRV14 (in words)” value [7] was “no effect on the virus”.
In the case of `OC[C@@H]1CC[C@H](n2cnc3c(O)ncnc32)O1` [ddI, 2',3'-dideoxyinosine], the “clinical condition of AIDS patients” value [2] is given as “improvement of the clinical condition of patients”.
In the case of `COC(=O)[C@H]1[C@@H]2C[C@@H](O[C@@H]3O[C@H](C)[C@@H](O)[C@H](N)[C@@H]3O)/C=C/C=C/C=C/C=C/C=C/C=C/C=C/[C@H](C)[C@@H](O)[C@@H](C)[C@H](C)OC(=O)C[C@H](O)C[C@H](O)CC[C@@H](O)[C@H](O)C[C@H](O)C[C@](O)(C[C@@H]1O)O2` [AME, methyl ester of amphotericin B], the “capacity of preincubated HIV-infected lymphocytes to form syncytia with uninfected cells” value ([1]; HIV-infected lymphocytes preincubated) is listed as “increased”, the “inhibition of infection by preincubation of healthy lymphocytes prior to infection” value ([1]; lymphocytes preincubated) is listed as “inhibits the infection” and the “inhibition of cell death and of viral expression” value [8] is listed as “inhibitors of cell death and of viral expression”. For the same compound, the inhibition at 1 µM [6, 9] was about 10%.
For `C[C@@H]1[C@H](O)[C@@H](C)/C=C/C=C/C=C/C=C/C=C/C=C/C=C/[C@H](O[C@@H]2O[C@H](C)[C@@H](O)[C@H](NC(=O)C(N)CC(=O)O)[C@@H]2O)C[C@@H]2O[C@](O)(C[C@@H](O)C[C@@H](O)[C@H](O)CC[C@@H](O)C[C@@H](O)CC(=O)O[C@H]1C)C[C@H](O)[C@H]2C(=O)O` (some centres unmarked) [N-aspartyl-AmB], the inhibition at 1 µM ([6]; 1 μM, FIG. 1, read-out: % inhibition of trypsin relative to a control without inhibitor) was about 40%.
